Measured values taken from patent US8501794B2, “Compounds as cannabinoid receptor ligands” (priority 2007, dated 2013).

Columns and labels:
[1] = target: T1, human CB2 receptors (Homo sapiens, UniProt P34972); assay: human CB2 radioligand binding assay ([3H]CP-55,940 competition)
T1 construct: expressed in transfected cells; host or cells: HEK293

[2] = target: T2, rat CB2 (Rattus norvegicus, UniProt Q9QZN9); assay: rat CB2 cyclase functional assay (HitHunter cAMP, HEK cells); format: cell-based; parameters: expressed in transfected cells; host or cells: HEK; conditions: forskolin 18 μM
T2 sequence (Q9QZN9 1-360): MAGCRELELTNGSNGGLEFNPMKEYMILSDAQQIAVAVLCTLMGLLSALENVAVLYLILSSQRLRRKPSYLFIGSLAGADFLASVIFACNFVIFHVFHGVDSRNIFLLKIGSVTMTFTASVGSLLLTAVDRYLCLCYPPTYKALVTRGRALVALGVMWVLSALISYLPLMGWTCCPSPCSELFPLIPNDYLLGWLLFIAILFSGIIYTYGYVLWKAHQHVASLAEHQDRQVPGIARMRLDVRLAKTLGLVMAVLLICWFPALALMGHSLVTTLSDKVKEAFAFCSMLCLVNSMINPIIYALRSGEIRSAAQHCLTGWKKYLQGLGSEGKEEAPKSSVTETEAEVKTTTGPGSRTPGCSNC

[3] = target: T2, rat CB2; assay: rat CB2 radioligand binding assay ([3H]CP-55,940 competition); parameters: expressed in transfected cells; host or cells: HEK293

T1 sequence (P34972 whole entry): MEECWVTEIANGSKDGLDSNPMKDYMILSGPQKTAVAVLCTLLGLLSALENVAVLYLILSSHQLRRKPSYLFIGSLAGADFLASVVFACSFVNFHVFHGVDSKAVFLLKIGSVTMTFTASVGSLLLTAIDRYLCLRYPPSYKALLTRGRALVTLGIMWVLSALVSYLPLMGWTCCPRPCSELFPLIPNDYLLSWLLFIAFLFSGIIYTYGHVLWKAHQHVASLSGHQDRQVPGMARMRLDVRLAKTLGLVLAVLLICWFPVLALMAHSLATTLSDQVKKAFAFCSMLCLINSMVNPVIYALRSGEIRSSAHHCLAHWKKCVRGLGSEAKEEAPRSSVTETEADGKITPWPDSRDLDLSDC

| SMILES | Ki [1] | EC50 [2] | Ki [3] |
| --- | --- | --- | --- |
| COc1ccc(Cl)cc1C(=O)/N=c1\sn(C(C)(C)C)cc1CCCC#N [Example 30, N-[(5Z)-2-tert-butyl-4-(3-cyanopropyl)isothiazol-5(2H)-ylidene]-5-chloro-2-methoxybenzamide] | 17 nM | 0.2 nM | 2.6 nM |
| CCCCc1cn(C(C)(C)C)s/c1=N\S(=O)(=O)c1cccc2ccccc12 [Example 116, N-[(5Z)-4-butyl-2-tert-butylisothiazol-5(2H)-ylidene]naphthalene-1-sulfonamide] | 50 nM | 2.4 nM | 45 nM |
| COc1ccc(Cl)cc1C(=O)/N=c1\sn(C(C)(C)C)cc1CCCCC#N [Example 138, N-[(5Z)-2-tert-butyl-4-(4-cyanobutyl)isothiazol-5(2H)-ylidene]-5-chloro-2-methoxybenzamide] | 5.9 nM | 12.8 nM | 0.9 nM |
| CCCCc1cn(C(C)(C)C)s/c1=N\C(=O)c1cc(F)ccc1OC [Example 42, N-[(5Z)-4-butyl-2-tert-butylisothiazol-5(2H)-ylidene]-5-fluoro-2-methoxybenzamide] | 24 nM | 0.31 nM | 2.3 nM |
| COc1ccc(C(F)(F)F)cc1C(=O)/N=c1\sn(C(C)(C)C)cc1CC(C)C [Example 143, N-[(5Z)-2-tert-butyl-4-isobutylisothiazol-5(2H)-ylidene]-2-methoxy-5-(trifluoromethyl)benzamide] | 11 nM | 0.1 nM | 1.8 nM |
| COc1ccc(Cl)cc1C(=O)/N=c1\sn(C(C)(C)C)cc1COCC(F)F [Example 91, N-[(5Z)-2-tert-butyl-4-[(2,2-difluoroethoxy)methyl]isothiazol-5(2H)-ylidene]-5-chloro-2-methoxybenzamide] | 45 nM | 0.1 nM | 12 nM |
| CON=CCCc1cn(C(C)(C)C)s/c1=N\C(=O)c1cc(Cl)ccc1OC [Example 15, N-[(5Z)-2-tert-butyl-4-[3-(methoxyimino)propyl]isothiazol-5(2H)-ylidene]-5-chloro-2-methoxybenzamide] | 170 nM | 1.1 nM | 15 nM |
| COc1ccc(Cl)cc1C(=O)/N=c1\sn(C(C)(C)C)cc1CCCCF [Example 148, N-[(5Z)-2-tert-butyl-4-(4-fluorobutyl)isothiazol-5(2H)-ylidene]-5-chloro-2-methoxybenzamide] | 7.6 nM | 0.11 nM | 0.24 nM |
| COc1ccc(Cl)cc1C(=O)/N=c1\sn(C(C)(C)C)cc1CCC#N [Example 19, N-[(5Z)-2-tert-butyl-4-(2-cyanoethyl)isothiazol-5(2H)-ylidene]-5-chloro-2-methoxybenzamide] | 44 nM | 0.57 nM | 7.1 nM |
| COc1ccc(C#N)cc1C(=O)/N=c1\sn(C(C)(C)C)cc1Cc1ccco1 [Example 51, N-[(5Z)-2-tert-butyl-4-(2-furylmethyl)isothiazol-5(2H)-ylidene]-5-cyano-2-methoxybenzamide] | 140 nM | 0.3 nM | 8.1 nM |
| CCCCc1cn(C(C)(C)C)s/c1=N\S(=O)(=O)C1CCCCC1 [Example 118, N-[(5Z)-4-butyl-2-tert-butylisothiazol-5(2H)-ylidene]cyclohexanesulfonamide] | 43 nM | 5.1 nM | 119 nM |
| COc1ccc(Cl)cc1C(=O)/N=c1\sn(C(C)(C)C)cc1C1CCOCC1 [Example 39, N-[(5Z)-2-tert-butyl-4-tetrahydro-2H-pyran-4-ylisothiazol-5(2H)-ylidene]-5-chloro-2-methoxybenzamide] | 99 nM | 1.6 nM | 26 nM |
| CCCCc1cn(C(C)(C)C)s/c1=N\C(=O)[C@]1(C)CC[C@H](C(=O)OC)C1(C)C [Example 177, Methyl (1S,3R)-3-({[(5Z)-4-butyl-2-tert-butylisothiazol-5(2H)-ylidene]amino}carbonyl)-2,2,3-trimethylcyclopentanecarboxylate] | 0.16 nM | 0.15 nM | 0.1 nM |
